Source: PubChem BioAssay AID328 (DTP/NCI, 2004)
Values joined by “and” are separate entries in the source; they are usually repeats but may differ in a detail not shown here. Equal values may be shown once. Toxic doses and inconclusive results are not listed.

Tested on: BDF1 mice, P388 leukemia ip, median survival T/C
Assay: NCI In Vivo Anticancer Drug Screen. Data for tumor model P388 Leukemia (intraperitoneal) in B6D2F1 (BDF1) mice
Details: endpoint: median survival time, higher = longer survival
Outline: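 Each value expresses how treatment altered survival: treated-mouse outcome over vehicle-mouse outcome, both groups bearing the transplanted tumour.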

[1] = dose: 100.0 mg/kg/injection, schedule: Q01DX001 (ip), vehicle: saline sonified
[2] = dose: 400.0 mg/kg/injection, schedule: Q01DX001 (ip), vehicle: saline sonified
[3] = dose: 100.0 mg/kg/injection, schedule: Q04DX003 (ip), vehicle: saline with Tween-80
[4] = dose: 200.0 mg/kg/injection, schedule: Q04DX003 (ip), vehicle: saline with Tween-80
[5] = dose: 400.0 mg/kg/injection, schedule: Q04DX003 (ip), vehicle: saline with Tween-80
[6] = dose: 50.0 mg/kg/injection, schedule: Q04DX003 (ip), vehicle: other

CN(C)C(c1ccccc1)C(CBr)C(=O)c1ccc(Br)cc1 (stereo not given)
T/C (dose: 6.25 mg/kg/injection, schedule: Q01DX009 (ip), vehicle: saline): 110 % of control | T/C (dose: 16.5 mg/kg/injection, schedule: Q01DX009 (ip), vehicle: saline): 109 % of control and 116 % of control | T/C (dose: 25.0 mg/kg/injection, schedule: Q01DX009 (ip), vehicle: saline): 100 % of control and 118 % of control | T/C (dose: 27.5 mg/kg/injection, schedule: Q04DX003 (ip), vehicle: saline): 104 % of control | T/C (dose: 37.5 mg/kg/injection, schedule: Q01DX009 (ip), vehicle: saline): 113 % of control and 120 % of control | T/C (dose: 55.0 mg/kg/injection, schedule: Q04DX003 (ip), vehicle: saline): 100 % of control

CCCCCCCCNc1ccccc1
T/C [1]: 87 % of control | T/C [2]: 91 % of control

C[N+](C)(C)/N=C1\CCc2ccccc21
T/C (dose: 50.0 mg/kg/injection, schedule: Q04DX003 (ip), vehicle: saline with Tween-80): 95 % of control | T/C [3]: 95 % of control | T/C [4]: 95 % of control

CCOC(=O)/C=C(\C)SC1=CC(=O)C=CC1=O
T/C (dose: 100.0 mg/kg/injection, schedule: Q01DX001 (ip), vehicle: saline with Tween-80): 106 % of control | T/C (dose: 200.0 mg/kg/injection, schedule: Q01DX001 (ip), vehicle: saline with Tween-80): 100 % of control

CC(C)(C)C1COP(=O)(c2ccccc2)N(c2ccccc2)C1 (stereo not given)
T/C (dose: 50.0 mg/kg/injection, schedule: Q01DX005 (ip), vehicle: saline with Tween-80): 92 % of control | T/C (dose: 100.0 mg/kg/injection, schedule: Q01DX005 (ip), vehicle: saline with Tween-80): 91 % of control

NOCc1ccc(CON)cc1
T/C (dose: 50.0 mg/kg/injection, schedule: Q04DX003 (ip), vehicle: saline): 87 % of control | T/C (dose: 100.0 mg/kg/injection, schedule: Q04DX003 (ip), vehicle: saline): 91 % of control | T/C (dose: 200.0 mg/kg/injection, schedule: Q04DX003 (ip), vehicle: saline): 95 % of control

CCCCCCCCOc1cc2c(c(OC(C)=O)c1)-c1ccccc1CC2
T/C [3]: 97 % of control | T/C [4]: 99 % of control | T/C [5]: 99 % of control

CC1(C#N)CCc2c(ccc3ccccc23)C1=O (stereo not given)
T/C [6]: 91 % of control | T/C (dose: 100.0 mg/kg/injection, schedule: Q04DX003 (ip), vehicle: other): 95 % of control | T/C (dose: 200.0 mg/kg/injection, schedule: Q04DX003 (ip), vehicle: other): 100 % of control

CC(=O)O[C@H]1[C@H]2O[C@]23[C@@H]2CC[C@@H]4C[C@@H](O)CC[C@]4(C)[C@H]2CC[C@]3(C)[C@H]1c1ccc(=O)oc1
T/C (dose: 3.75 mg/kg/injection, schedule: Q01DX009 (ip), vehicle: Klucel (hydroxypropylcellulose) (HPC)): 100 % of control | T/C (dose: 7.5 mg/kg/injection, schedule: Q01DX009 (ip), vehicle: Klucel (hydroxypropylcellulose) (HPC)): 104 % of control | T/C (dose: 10.0 mg/kg/injection, schedule: Q01DX010 (ip), vehicle: carboxymethylcellulose (CMC)): 90 % of control | T/C (dose: 20.0 mg/kg/injection, schedule: Q01DX010 (ip), vehicle: carboxymethylcellulose (CMC)): 90 % of control

CN(C)c1ccc(/C=C/c2ccc3ccccc3n2)c(F)c1
T/C (dose: 100.0 mg/kg/injection, schedule: Q04DX003 (ip), vehicle: Klucel (hydroxypropylcellulose) (HPC)): 90 % of control | T/C (dose: 200.0 mg/kg/injection, schedule: Q04DX003 (ip), vehicle: Klucel (hydroxypropylcellulose) (HPC)): 95 % of control | T/C (dose: 400.0 mg/kg/injection, schedule: Q04DX003 (ip), vehicle: Klucel (hydroxypropylcellulose) (HPC)): 90 % of control

CO[C@@H]([CH2][Hg][S]C#N)[C@@H]([CH2][Hg][S]C#N)OC
T/C (dose: 6.25 mg/kg/injection, schedule: Q01DX009 (ip), vehicle: other): 110 % of control | T/C (dose: 12.5 mg/kg/injection, schedule: Q01DX009 (ip), vehicle: other): 120 % of control | T/C (dose: 25.0 mg/kg/injection, schedule: Q01DX009 (ip), vehicle: other): 100 % of control and 109 % of control | T/C (dose: 25.0 mg/kg/injection, schedule: Q04DX003 (ip), vehicle: other): 100 % of control | T/C [6]: 103 % of control | T/C (dose: 100.0 mg/kg/injection, schedule: Q04DX003 (ip), vehicle: saline sonified): 90 % of control

COC(=O)C1=C(C)NC(C)=C(C(=O)OC)C1C(C)SC#N (stereo not given)
T/C (dose: 50.0 mg/kg/injection, schedule: Q01DX009 (ip), vehicle: saline with Tween-80): 107 % of control | T/C (dose: 100.0 mg/kg/injection, schedule: Q01DX009 (ip), vehicle: saline with Tween-80): 109 % of control | T/C (dose: 200.0 mg/kg/injection, schedule: Q01DX009 (ip), vehicle: saline with Tween-80): 97 % of control

Cc1ccc([N+](=O)[O-])cc1NC(=O)SCCOC(=O)COc1ccc(Cl)cc1Cl
T/C [3]: 86 % of control | T/C [4]: 100 % of control | T/C [5]: 90 % of control

O=C1c2cscc2C(=O)c2c(Cl)sc(Cl)c21
T/C (dose: 6.25 mg/kg/injection, schedule: Q01DX009 (ip), vehicle: saline with Tween-80): 101 % of control | T/C (dose: 12.5 mg/kg/injection, schedule: Q01DX009 (ip), vehicle: saline with Tween-80): 108 % of control | T/C (dose: 25.0 mg/kg/injection, schedule: Q01DX009 (ip), vehicle: saline with Tween-80): 101 % of control

O=C(NP(=O)(N1CC1)N1CC1)OCc1ccccc1
T/C (dose: 100.0 mg/kg/injection, schedule: Q01DX009 (ip), vehicle: alcohol): 100 % of control | T/C (dose: 100.0 mg/kg/injection, schedule: Q04DX003 (ip), vehicle: alcohol): 95 % of control | T/C (dose: 200.0 mg/kg/injection, schedule: Q01DX009 (ip), vehicle: alcohol): 100 % of control | T/C (dose: 200.0 mg/kg/injection, schedule: Q04DX003 (ip), vehicle: alcohol): 110 % of control | T/C (dose: 400.0 mg/kg/injection, schedule: Q01DX009 (ip), vehicle: alcohol): 86 % of control | T/C (dose: 400.0 mg/kg/injection, schedule: Q04DX003 (ip), vehicle: alcohol): 100 % of control

CS(=O)(=O)OCCC(=O)NCNC(=O)CCOS(C)(=O)=O
T/C (dose: 9.0 mg/kg/injection, schedule: Q04DX003 (ip), vehicle: Klucel (hydroxypropylcellulose) (HPC)): 100 % of control | T/C (dose: 12.0 mg/kg/injection, schedule: Q04DX003 (ip), vehicle: Klucel (hydroxypropylcellulose) (HPC)): 113 % of control | T/C (dose: 12.5 mg/kg/injection, schedule: Q01DX009 (ip), vehicle: Klucel (hydroxypropylcellulose) (HPC)): 150 % of control | T/C (dose: 13.0 mg/kg/injection, schedule: Q04DX003 (ip), vehicle: Klucel (hydroxypropylcellulose) (HPC)): 113 % of control | T/C (dose: 22.0 mg/kg/injection, schedule: Q01DX009 (ip), vehicle: Klucel (hydroxypropylcellulose) (HPC)): 156 % of control | T/C (dose: 25.0 mg/kg/injection, schedule: Q01DX009 (ip), vehicle: Klucel (hydroxypropylcellulose) (HPC)): 172 % of control | T/C (dose: 25.0 mg/kg/injection, schedule: Q04DX003 (ip), vehicle: Klucel (hydroxypropylcellulose) (HPC)): 163 % of control | T/C (dose: 33.0 mg/kg/injection, schedule: Q01DX009 (ip), vehicle: Klucel (hydroxypropylcellulose) (HPC)): 176 % of control | T/C (dose: 33.0 mg/kg/injection, schedule: Q04DX003 (ip), vehicle: Klucel (hydroxypropylcellulose) (HPC)): 155 % of control and 171 % of control | T/C (dose: 50.0 mg/kg/injection, schedule: Q01DX009 (ip), vehicle: Klucel (hydroxypropylcellulose) (HPC)): 168 % of control and 218 % of control | T/C (dose: 50.0 mg/kg/injection, schedule: Q04DX003 (ip), vehicle: Klucel (hydroxypropylcellulose) (HPC)): 181 % of control and 185 % of control and 195 % of control | T/C (dose: 75.0 mg/kg/injection, schedule: Q01DX009 (ip), vehicle: Klucel (hydroxypropylcellulose) (HPC)): 124 % of control | T/C (dose: 75.0 mg/kg/injection, schedule: Q04DX003 (ip), vehicle: Klucel (hydroxypropylcellulose) (HPC)): 190 % of control and 214 % of control

COc1ccc2cc(OC)ccc2c1
T/C [1]: 100 % of control | T/C (dose: 200.0 mg/kg/injection, schedule: Q01DX001 (ip), vehicle: saline sonified): 100 % of control | T/C [2]: 100 % of control

CC(=O)OCC1OC(n2cc(C(F)(F)F)c(=O)[nH]c2=O)CC1OC(C)=O (stereo not given)
T/C (dose: 62.5 mg/kg/injection, schedule: Q01DX009 (ip), vehicle: Klucel (hydroxypropylcellulose) (HPC)): 95 % of control | T/C (dose: 100.0 mg/kg/injection, schedule: Q01DX009 (ip), vehicle: Klucel (hydroxypropylcellulose) (HPC)): 100 % of control | T/C (dose: 125.0 mg/kg/injection, schedule: Q01DX009 (ip), vehicle: Klucel (hydroxypropylcellulose) (HPC)): 109 % of control | T/C (dose: 200.0 mg/kg/injection, schedule: Q01DX009 (ip), vehicle: Klucel (hydroxypropylcellulose) (HPC)): 100 % of control | T/C (dose: 250.0 mg/kg/injection, schedule: Q01DX009 (ip), vehicle: Klucel (hydroxypropylcellulose) (HPC)): 90 % of control | T/C (dose: 400.0 mg/kg/injection, schedule: Q01DX009 (ip), vehicle: Klucel (hydroxypropylcellulose) (HPC)): 105 % of control | T/C (dose: 500.0 mg/kg/injection, schedule: Q01DX009 (ip), vehicle: Klucel (hydroxypropylcellulose) (HPC)): 109 % of control
